From patent US8546593B2, “Methods and compositions for novel liquid crystal delivery systems” (Copperhead Chemical Company, Inc., priority 2009, dated 2013) come the findings set out here.

This assay deals with Staphylococcus aureus. Nature of the assay: Minimum inhibitory concentration against Staphylococcus aureus. The assay is classed as cell-based. As to conditions: read-out: minimum inhibitory concentration (MIC).

≈ marks a conversion by molar mass, not a printed value.

As to `CCCCCCCCCCCC(=O)OCC(O)CO` (stereo not shown) [glycerol monolaurate], the MIC turned out to be 55 µg/mL (≈ 200 µM).
